In patent US20240217989A1, “Heteroaryl Fluoroalkenes As DGK Inhibitors” (Incyte Corporation, priority 2022, published 2024):

Key:
[1] = molecular target: T1, DGKα (Homo sapiens, UniProt P23743); assay: In vitro DGKα inhibition assay (ADP-Glo); type: biochemical; details: His-tagged human recombinant enzyme; 0.1 nM DGKα, 50 μM ATP, 20 μM DLG; 90 minute incubation; ADP-Glo luminescence
T1 construct: His; purchased Signal Chem D21-10BH
Protocol: (§1) The DGKα and DGKζ biochemical reactions were performed using His-tagged human recombinant enzymes (Signal Chem, DGKα, #D21-10BH; DGKζ, #D30-10H)) and DLG (Dilauroyl-sn-glycerol) lipid substrate (Signal Chem, #D430-59). ADP-Glo assay was performed using ADP-Glo™ kinase Assay kit (Promega, #V9104). The reactions were carried out in assay buffer containing 40 mM Tris, pH 7.5, 0.1% CHAPS, 0.1% Prionex, 40 mM NaCl, 5 mM MgCl2, 1 mM CaCl2, and 1 mM DTT. DGKα reactions contained 0.1 nM DGKα, 50 μM ATP, and 20 μM DLG. And DGKζ reactions contained 0.4 nM DGKζ, 30 μM ATP, and 20 μM DLG. For compound inhibition studies, 40 nL test compound in DMSO was added to wells of white polystyrene plates in 384-well (Greiner, #784075) or 1536-well format (Greiner, #782075). Compounds were added with top concentration of 2 mM with 11 point, 3-fold dilution series. Enzyme solution (contains 2× DGK enzyme concentration in 1× assay buffer) was added to the plate in 2 μL/well volume, followed by 2 μL/well of substrate solution (contains 2× concentration of ATP and DLG substrate in 1× assay buffer). Plates were then centrifuged for 1 min at 1200 RPM and sealed or lidded. For 4 μL reaction volume, test compounds were therefore diluted 100× to final top concentration of 20 μM. After 90 minute incubation, reactions were quenched by addition of 2 μL/well Promega ADP-Glo Reagent, followed by centrifugation and lidding. After 60 min incubation, 2 μL/well Promega Kinase Detection Reagent was added, plates centrifuged, and incubated for 30 min. Plates were then read using Luminescence method on BMG PHERAstar FSX plate reader. Percent inhibition was calculated and IC50s were determined using 4-parameter fit in Genedata Screener. Labcyte Echo acoustic dispenser was used for compound addition, and Formulatrix Tempest liquid handler was used for all reagent dispenses.

[2] = molecular target: DGKζ (Homo sapiens, UniProt Q13574); assay: In vitro DGKζ inhibition assay (ADP-Glo); type: biochemical; details: His-tagged human recombinant enzyme; 0.4 nM DGKζ, 30 μM ATP, 20 μM DLG; 90 minute incubation; ADP-Glo luminescence
Protocol: as §1

Sequence of DGKζ (Q13574 whole entry): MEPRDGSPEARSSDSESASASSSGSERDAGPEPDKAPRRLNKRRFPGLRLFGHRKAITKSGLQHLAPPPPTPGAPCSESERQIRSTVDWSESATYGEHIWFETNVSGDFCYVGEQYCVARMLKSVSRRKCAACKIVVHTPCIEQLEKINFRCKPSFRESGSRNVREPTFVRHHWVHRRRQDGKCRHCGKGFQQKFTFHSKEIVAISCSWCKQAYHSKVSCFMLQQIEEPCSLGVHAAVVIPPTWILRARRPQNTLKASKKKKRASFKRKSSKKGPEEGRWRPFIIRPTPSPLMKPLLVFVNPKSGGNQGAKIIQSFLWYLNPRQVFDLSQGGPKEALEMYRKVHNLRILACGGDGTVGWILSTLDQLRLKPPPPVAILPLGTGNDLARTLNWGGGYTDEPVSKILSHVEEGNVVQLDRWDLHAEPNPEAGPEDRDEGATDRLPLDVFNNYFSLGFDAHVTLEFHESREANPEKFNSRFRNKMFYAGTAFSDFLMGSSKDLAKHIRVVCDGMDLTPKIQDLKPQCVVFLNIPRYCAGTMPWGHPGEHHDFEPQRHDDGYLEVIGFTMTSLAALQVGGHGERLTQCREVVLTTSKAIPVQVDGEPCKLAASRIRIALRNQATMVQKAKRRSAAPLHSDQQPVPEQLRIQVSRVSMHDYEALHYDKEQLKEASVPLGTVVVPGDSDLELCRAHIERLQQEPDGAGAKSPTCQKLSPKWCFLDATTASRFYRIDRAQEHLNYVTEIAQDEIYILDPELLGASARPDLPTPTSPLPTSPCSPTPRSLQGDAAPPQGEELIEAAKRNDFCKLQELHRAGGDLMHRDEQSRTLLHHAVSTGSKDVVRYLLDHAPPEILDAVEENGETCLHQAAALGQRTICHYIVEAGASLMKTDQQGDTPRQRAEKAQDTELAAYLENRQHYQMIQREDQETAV
T1 sequence (P23743 whole entry): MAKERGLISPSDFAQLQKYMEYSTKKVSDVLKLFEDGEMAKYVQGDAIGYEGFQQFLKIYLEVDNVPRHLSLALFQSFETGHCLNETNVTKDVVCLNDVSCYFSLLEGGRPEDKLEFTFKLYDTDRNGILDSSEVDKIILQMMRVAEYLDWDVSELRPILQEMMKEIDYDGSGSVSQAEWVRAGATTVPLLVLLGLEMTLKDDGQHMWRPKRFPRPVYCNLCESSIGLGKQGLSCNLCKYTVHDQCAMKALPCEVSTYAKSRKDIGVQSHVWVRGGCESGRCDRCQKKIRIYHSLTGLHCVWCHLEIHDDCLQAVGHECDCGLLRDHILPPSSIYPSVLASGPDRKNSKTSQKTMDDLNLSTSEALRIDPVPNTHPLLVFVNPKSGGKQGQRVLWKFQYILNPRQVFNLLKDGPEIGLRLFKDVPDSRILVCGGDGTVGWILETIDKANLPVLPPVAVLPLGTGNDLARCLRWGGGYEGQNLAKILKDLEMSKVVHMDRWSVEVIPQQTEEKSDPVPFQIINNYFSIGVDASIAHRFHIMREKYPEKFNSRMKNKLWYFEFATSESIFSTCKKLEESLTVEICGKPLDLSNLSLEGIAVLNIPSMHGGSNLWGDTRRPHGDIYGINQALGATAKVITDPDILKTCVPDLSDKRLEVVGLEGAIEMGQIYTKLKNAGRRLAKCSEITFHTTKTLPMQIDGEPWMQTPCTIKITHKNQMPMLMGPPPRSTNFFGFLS

| IC50 [1] [nM] | IC50 [2] [nM] | SMILES |
| --- | --- | --- |
| ≤ 20 | ≤ 20 | [2H]c1c([2H])c([2H])c(Oc2ccc(/C=C(\F)c3cncc(N4CC(F)(F)C4)n3)c(N3CCCC4(CCN(CC5CC5)CC4)C3)c2C(F)(F)F)c([2H])c1[2H] [Example 17, (Z)-9-(Cyclopropylmethyl)-2-(6-(2-(6-(3,3-difluoroazetidin-1-yl)pyrazin-2-yl)-2-fluorovinyl)-3-(phenoxy-d5)-2-(trifluoromethyl)phenyl)-2,9-diazaspiro[5.5]undecane] |
| ≤ 20 | ≤ 20 | F/C(=C\c1ccc(Oc2ccccc2F)c(C(F)(F)F)c1N1CCCC2(CCN(CC3CC3)CC2)C1)c1cncc(N2CCC(F)(F)C2)n1 [Example 59, (Z)-9-(Cyclopropylmethyl)-2-(6-(2-(6-(3,3-difluoropyrrolidin-1-yl)pyrazin-2-yl)-2-fluorovinyl)-3-(2-fluorophenoxy)-2-(trifluoromethyl)phenyl)-2,9-diazaspiro[5.5]undecane] |
| ≤ 20 | ≤ 20 | F/C(=C\c1ccc(Oc2ccccc2)c(C(F)(F)F)c1N1CCOC2(CCNCC2)C1)c1cncc(-c2ccnnc2)n1 [Example 9, (Z)-4-(6-(2-Fluoro-2-(6-(pyridazin-4-yl)pyrazin-2-yl)vinyl)-3-phenoxy-2-(trifluoromethyl)phenyl)-1-oxa-4,9-diazaspiro[5.5]undecane] |
| ≤ 20 | ≤ 20 | F/C(=C\c1ccc(Oc2ccc(F)cc2F)c(C(F)(F)F)c1N1CCCC2(CCN(CC3CC3)CC2)C1)c1cncc(-c2ccnnc2)n1 [Example 38, (Z)-9-(Cyclopropylmethyl)-2-(3-(2,4-difluorophenoxy)-6-(2-fluoro-2-(6-(pyridazin-4-yl)pyrazin-2-yl)vinyl)-2-(trifluoromethyl)phenyl)-2,9-diazaspiro[5.5]undecane] |
| ≤ 20 | ≤ 20 | F/C(=C\c1ccc(Oc2ccccc2)c(C(F)(F)F)c1N1CCCC2(CCN(CC3CC3)CC2)C1)c1nccc(-c2ccnnc2)n1 [Example 28, (Z)-9-(Cyclopropylmethyl)-2-(6-(2-fluoro-2-(4-(pyridazin-4-yl)pyrimidin-2-yl)vinyl)-3-phenoxy-2-(trifluoromethyl)phenyl)-2,9-diazaspiro[5.5]undecane] |
| ≤ 20 | ≤ 20 | COc1cc(F)ccc1Oc1ccc(/C=C(\F)c2nccc(-c3ccnnc3)n2)c(N2CCC[C@@H](CN)C2)c1Cl [Example 6, (S,Z)-(1-(2-Chloro-6-(2-fluoro-2-(4-(pyridazin-4-yl)pyrimidin-2-yl)vinyl)-3-(4-fluoro-2-methoxyphenoxy)phenyl)piperidin-3-yl)methanamine] |
| 20 to 200 | ≤ 20 | F/C(=C\c1ccc(Oc2ccccc2)c(C(F)(F)F)c1N1CCOC2(CCN(CC3CC3)CC2)C1)c1nccc(-c2ccnnc2)n1 [Example 23, (Z)-9-(Cyclopropylmethyl)-4-(6-(2-fluoro-2-(4-(pyridazin-4-yl)pyrimidin-2-yl)vinyl)-3-phenoxy-2-(trifluoromethyl)phenyl)-1-oxa-4,9-diazaspiro[5.5]undecane] |
| ≤ 20 | ≤ 20 | F/C(=C\c1ccc(Oc2cccc(F)c2F)c(C(F)(F)F)c1N1CCCC2(CCN(CC3CC3)CC2)C1)c1cncc(-c2ccns2)n1 [Example 49, (Z)-5-(6-(2-(2-(9-(Cyclopropylmethyl)-2,9-diazaspiro[5.5]undecan-2-yl)-4-(2,3-difluorophenoxy)-3-(trifluoromethyl)phenyl)-1-fluorovinyl)pyrazin-2-yl)isothiazole] |
| ≤ 20 | ≤ 20 | [2H]c1c([2H])c([2H])c(Oc2ccc(/C=C(\F)c3cncc(N4CC(F)(F)C4)n3)c(N3CCCC4(CCN(CC)CC4)C3)c2C(F)(F)F)c([2H])c1[2H] [Example 18, (Z)-2-(6-(2-(6-(3,3-Difluoroazetidin-1-yl)pyrazin-2-yl)-2-fluorovinyl)-3-(phenoxy-d5)-2-(trifluoromethyl)phenyl)-9-ethyl-2,9-diazaspiro[5.5]undecane] |
| ≤ 20 | ≤ 20 | F/C(=C\c1ccc(Oc2ccccc2F)c(C(F)(F)F)c1N1CCCC2(CCN(CC3CC3)CC2)C1)c1nccc(-c2cnsc2)n1 [Example 55, (Z)-4-(2-(2-(2-(9-(Cyclopropylmethyl)-2,9-diazaspiro[5.5]undecan-2-yl)-4-(2-fluorophenoxy)-3-(trifluoromethyl)phenyl)-1-fluorovinyl)pyrimidin-4-yl)isothiazole] |

The next lines start with the compound.

| SMILES | IC50 [1] [nM] | IC50 [2] [nM] |
| --- | --- | --- |
| [2H]c1c([2H])c([2H])c(Oc2ccc(/C=C(\F)c3cncc(N4CCC(F)(F)C4)n3)c(N3CCCC4(CCN(CC5CC5)CC4)C3)c2C(F)(F)F)c([2H])c1[2H] [Example 21, (Z)-9-(Cyclopropylmethyl)-2-(6-(2-(6-(3,3-difluoropyrrolidin-1-yl)pyrazin-2-yl)-2-fluorovinyl)-3-(phenoxy-ds)-2-(trifluoromethyl)phenyl)-2,9-diazaspiro[5.5]undecane] | ≤ 20 | ≤ 20 |
| F/C(=C\c1ccc(Oc2ccccc2)c(C(F)(F)F)c1N1CCCC2(CCN(CC3CC3)CC2)C1)c1cncc(-c2ccnnc2)n1 [Example 29, (Z)-9-(Cyclopropylmethyl)-2-(6-(2-fluoro-2-(6-(pyridazin-4-yl)pyrazin-2-yl)vinyl)-3-phenoxy-2-(trifluoromethyl)phenyl)-2,9-diazaspiro[5.5]undecane] | ≤ 20 | ≤ 20 |
| CCN1CCC2(CC1)CN(c1c(/C=C(\F)c3cncc(-c4ccnnc4)n3)ccc(Oc3cccc(F)c3)c1C(F)(F)F)CCO2 [Example 34, (Z)-9-Ethyl-4-(6-(2-fluoro-2-(6-(pyridazin-4-yl)pyrazin-2-yl)vinyl)-3-(3-fluorophenoxy)-2-(trifluoromethyl)phenyl)-1-oxa-4,9-diazaspiro[5.5]undecane] | ≤ 20 | ≤ 20 |
| NC[C@@H]1CCCN(c2c(/C=C(\F)c3nccc(-c4ccnnc4)n3)ccc(Oc3ccccc3)c2C(F)(F)F)C1 [Example 43, (S,Z)-(1-(6-(2-Fluoro-2-(4-(pyridazin-4-yl)pyrimidin-2-yl)vinyl)-3-phenoxy-2-(trifluoromethyl)phenyl)piperidin-3-yl)methanamine] | ≤ 20 | ≤ 20 |
| OCCN1CCC2(CCCN(c3c(/C=C(\F)c4nccc(-c5cnsc5)n4)ccc(Oc4ccccc4F)c3C(F)(F)F)C2)CC1 [Example 45, (Z)-2-(2-(6-(2-Fluoro-2-(4-(isothiazol-4-yl)pyrimidin-2-yl)vinyl)-3-(2-fluorophenoxy)-2-(trifluoromethyl)phenyl)-2,9-diazaspiro[5.5]undecan-9-yl)ethan-1-ol] | ≤ 20 | ≤ 20 |
| COCCN1CCC2(CC1)CN(c1c(/C=C(\F)c3nccc(-c4ccnnc4)n3)ccc(Oc3ccccc3)c1C(F)(F)F)CCO2 [Example 25, (Z)-4-(6-(2-Fluoro-2-(4-(pyridazin-4-yl)pyrimidin-2-yl)vinyl)-3-phenoxy-2-(trifluoromethyl)phenyl)-9-(2-methoxyethyl)-1-oxa-4,9-diazaspiro[5.5]undecane] | ≤ 20 | ≤ 20 |
| F/C(=C\c1ccc(OC2CCCC2)c(C(F)(F)F)c1N1CCCC2(CCN(CC3CC3)CC2)C1)c1nccc(-c2ccnnc2)n1 [Example 51, (Z)-2-(3-(Cyclopentyloxy)-6-(2-fluoro-2-(4-(pyridazin-4-yl)pyrimidin-2-yl)vinyl)-2-(trifluoromethyl)phenyl)-9-(cyclopropylmethyl)-2,9-diazaspiro[5.5]undecane] | ≤ 20 | ≤ 20 |
| F/C(=C\c1ccc(OC2CCCCC2)c(C(F)(F)F)c1N1CCCC2(CCN(CC3CC3)CC2)C1)c1cncc(-c2ccnnc2)n1 [Example 48, (Z)-2-(3-(Cyclohexyloxy)-6-(2-fluoro-2-(6-(pyridazin-4-yl)pyrazin-2-yl)vinyl)-2-(trifluoromethyl)phenyl)-9-(cyclopropylmethyl)-2,9-diazaspiro[5.5]undecane] | ≤ 20 | ≤ 20 |
| CCN1CCC2(CCCN(c3c(/C=C(\F)c4cncc(N5CC(F)(F)C5)n4)ccc(Oc4ccccc4F)c3C(F)(F)F)C2)CC1 [Example 44, (Z)-2-(6-(2-(6-(3,3-Difluoroazetidin-1-yl)pyrazin-2-yl)-2-fluorovinyl)-3-(2-fluorophenoxy)-2-(trifluoromethyl)phenyl)-9-ethyl-2,9-diazaspiro[5.5]undecane] | ≤ 20 | ≤ 20 |
